{"source": "patent US20240174692A1", "about": "“PYRIMIDINE AROMATIC RING COMPOUNDS” (Medshine Discovery Inc., priority 2021, published 2024)", "key": {"p-ERK in GP2D cells": {"test_system": "p-ERK in GP2D cells", "assay": "Assay of p-ERK inhibition in GP2D cells (HTRF)", "assay_type": "cell-based", "conditions": "Homo sapiens, 1 hour incubation", "description": "2. Assay Process • 1) GP2D cells were inoculated in a transparent 96-well cell culture plate, and each well contained 80 μL of cell suspension and 8000 cells. The cell plate was inoculated in a carbon dioxide incubator at 37° C. overnight; • 2) 2 μL of the compound was weighed and added to 78 μL of the cell medium. After the mixture was mixed thoroughly, 20 μL of the solution of compound was weighed and added to the corresponding well of the cell plate. The cell plate was placed back to the carbon dioxide incubator and incubated for another 1 hour; • 3) After completion of the incubation, the cell supernatant was discarded. 50 μL of 1× cell lysate was added to each well. The mixture was incubated with shaking at room temperature for 30 minutes; • 4) Phospho-ERK1/2 Eu Cryptate antibody and Phospho-ERK1/2 d2 antibody were diluted 20-fold with detection buffer; • 5) 16 μL of cell lysate supernatant was weighed and added into each well of a new 384 white microwell plate, and then 2 μL of the diluted solution of Phospho-ERK1/2 Eu Cryptate antibody and 2 μL of the diluted solution of Phospho-ERK1/2 d2 antibody dilution were added. The mixture was incubated at room temperature for at least 4 hours; • 6) After completion of the incubation, HTRF was read with multi-label analyzer: excitation: 320 nm, emission: 615 nm, 665 nm; • 7). IC50 of the compounds to be assayed was calculated."}, "[1]": {"target": "KRAS^G12D binding to c-Raf (Homo sapiens (Human), UniProt P01116, G12D)", "sequence (P01116-2 other isoform, or with tags, fused parts or gaps G12D)": "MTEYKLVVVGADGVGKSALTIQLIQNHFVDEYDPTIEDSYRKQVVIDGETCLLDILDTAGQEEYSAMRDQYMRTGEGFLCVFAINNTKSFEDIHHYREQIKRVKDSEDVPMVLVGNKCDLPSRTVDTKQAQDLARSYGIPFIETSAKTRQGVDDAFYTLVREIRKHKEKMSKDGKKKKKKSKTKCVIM", "assay": "SOS1-mediated binding of KRAS^G12D to effector protein c-Raf (TR-FRET)", "assay_type": "biochemical"}, "plasma protein [2]": {"test_system": "plasma protein", "assay": "Plasma protein binding (PPB), equilibrium dialysis, H plasma", "assay_type": "in vitro ADME, human", "conditions": "2 μM, 4 hr dialysis", "description": "(§1) Assay procedure: 995 μL of blank plasma of various genera were weighed, and 5 μL of assay compound working solution (400 μM) or warfarin working solution (400 μM) was added so that the final concentrations of the assay compound and warfarin in plasma sample were each 2 μM. The samples were mixed thoroughly. The final concentration of DMSO (the organic phase) was 0.5%. 50 μL of the plasma samples of the assay compound and warfarin were pipetted to a sample receiving plate (in triplicate), and the corresponding volume of corresponding blank plasma or buffer was added immediately, so that the final volume in each sample well was 100 μL, wherein the volume ratio of plasma:dialysis buffer was 1:1. 500 μL of stop solution was then added to these samples. These samples were used as T0 samples for determination of recovery and stability. […] All samples were subjected to protein precipitation, and then analyzed by LC/MS/MS. Bound rate and recovery rate of protein were calculated using the following formulae: % Unbound=100*F/T % Bound=100−% Unbound, % Recovery=100*(F+T)/T0 (wherein F is the peak area ratio of the compound in the dialysate after 4 h of dialysis; T is the peak area ratio of the compound in the plasma after 4 h of dialysis; T0 is the peak area ratio of the compound in the plasma sample at time zero)."}, "plasma protein [3]": {"test_system": "plasma protein", "assay": "Plasma protein binding (PPB), equilibrium dialysis, D plasma", "assay_type": "in vitro ADME, dog", "conditions": "2 μM, 4 hr dialysis", "description": "as §1"}, "plasma protein [4]": {"test_system": "plasma protein", "assay": "Plasma protein binding (PPB), equilibrium dialysis, C plasma", "assay_type": "in vitro ADME, monkey", "conditions": "2 μM, 4 hr dialysis", "description": "as §1"}, "plasma protein [5]": {"test_system": "plasma protein", "assay": "Plasma protein binding (PPB), equilibrium dialysis, R plasma", "assay_type": "in vitro ADME, rat", "conditions": "2 μM, 4 hr dialysis", "description": "as §1"}, "plasma protein [6]": {"test_system": "plasma protein", "assay": "Plasma protein binding (PPB), equilibrium dialysis, M plasma", "assay_type": "in vitro ADME, mouse", "conditions": "2 μM, 4 hr dialysis", "description": "as §1"}, "[7]": {"assay": "Pharmacokinetic evaluation of compounds in mice", "assay_type": "in vivo, CD-1 mice", "conditions": "CD-1 male mice", "description": "Purpose of assay: To assay the pharmacokinetic data of the compounds in CD-1 mice in vivo.\n(§2) Compounds were mixed with vehicle 5% DMSO/95% (10% HP-β-CD aqueous solution), and the mixture was vortexed and sonicated to give 0.2 mg/mL-0.3 mg/mL clear solutions. CD-1 male mice aged 7 to 10 weeks were selected, and the candidate compound solution was administered intravenously. Whole blood was collected for a certain period of time to prepare the plasma. The drug concentration was analyzed by LC-MS/MS method and pharmacokinetic parameters were calculated by Phoenix WinNonlin software (Pharsight, USA).\nas §2, with “in water),” for “aqueous solution),”, “1.6 mg/mL to 4.0” for “0.2 mg/mL-0.3”, “orally administered.” for “administered intravenously.”, “prepare” for “prepare the”, “method,” for “method”"}, "[8]": {"test_system": "human colon cancer GP2D xenograft tumor", "assay": "In vivo pharmacodynamic study, GP2D xenograft tumor model in Balb/c nude mouse", "conditions": "PO", "description": "An xenograft tumor model in GP2D Balb/c nude mouse:\nAssay method: A Balb/c nude mouse model of subcutaneously xenograft tumor of human colon cancer GP2D cells was established. 0.2 mL (2×10^6) of GP2D cells (Matrigel was added, and volume ratio was 1:1) were inoculated subcutaneously on the right back of each mouse. When the average tumor volume reached 149 mm^3, the administration was started by group, with 6 mice in each group. On the day of the assay, the animals were administered the corresponding drugs according to the corresponding groups. The first group G1 was set as a negative control group, which was given 5% DMSO+95%(10% HP-β-CD) alone by gavage administration. The second group G2 to the fifth group G5 were given compound 014, and the dosage and protocol of administration were shown in Table 19.\nDuring the assay, the body weight of animals and the tumor size were measured twice a week. Meanwhile, clinical symptoms of animals were observed and recorded every day. Each administration was referenced to the most recent body weight of animals.\nThe length (a) and width (b) of a tumor were measured with a digital vernier caliper. The calculation formula of tumor volume (TV) was: TV=a×b^2/2."}}, "data": [{"smiles": "C#Cc1c(F)ccc2cc(N)cc(-c3ccc4c(N5CC6CCC(C5)N6)nc(OC[C@@]56CCCN5C[C@H](F)C6)nc4c3F)c12", "note": "[Compound 014]", "values": [{"measurement": "IC50", "setting": "p-ERK in GP2D cells", "value": 0.43, "unit": "nM"}, {"measurement": "IC50", "setting": "[1]", "value": 12, "unit": "nM"}, {"measurement": "Unbound PPB H", "setting": "plasma protein [2]", "value": 18.5, "unit": "%"}, {"measurement": "Unbound PPB D", "setting": "plasma protein [3]", "value": 3.0, "unit": "%"}, {"measurement": "Unbound PPB C", "setting": "plasma protein [4]", "value": 2.8, "unit": "%"}, {"measurement": "Unbound PPB R", "setting": "plasma protein [5]", "value": 2.0, "unit": "%"}, {"measurement": "Unbound PPB M", "setting": "plasma protein [6]", "value": 4.5, "unit": "%"}, {"measurement": "AUCu", "setting": "[7]; PO, 16.0 mg/kg, AUCu = AUC0-inf *Unbound PPB (Mouse)", "value": 67.1, "unit": "nM·h"}, {"measurement": "AUC(0-inf)", "setting": "[7]; mouse, plasma, IV, 1.28 mg/kg", "value": 0.565, "unit": "µM·h"}, {"measurement": "C0", "setting": "[7]; mouse, plasma, IV, 1.28 mg/kg", "value": 953, "unit": "nM"}, {"measurement": "Vd", "setting": "[7]; mouse, plasma, IV, 1.28 mg/kg", "value": 25.6, "unit": "L/kg"}, {"measurement": "clearance", "setting": "[7]; mouse, plasma, IV, 1.28 mg/kg", "value": 77, "unit": "mL/min/kg"}, {"measurement": "half-life", "setting": "[7]; mouse, plasma, IV, 1.28 mg/kg", "value": 342, "unit": "min"}, {"measurement": "AUC(0-inf)", "setting": "[7]; mouse, plasma, PO, 16.0 mg/kg", "value": 1.49, "unit": "µM·h"}, {"measurement": "Cmax", "setting": "[7]; mouse, plasma, PO, 16.0 mg/kg", "value": 524, "unit": "nM"}, {"measurement": "bioavailability", "setting": "[7]; mouse, plasma, PO, 16.0 mg/kg", "value": 20.5, "unit": "%"}, {"measurement": "half-life", "setting": "[7]; mouse, plasma, PO, 16.0 mg/kg", "value": 360, "unit": "min"}, {"measurement": "Tumor volume inhibition rate TGI", "setting": "[8]; G2, 25 mg/kg, BID*22, at day 14", "value": 84.2, "unit": "%"}, {"measurement": "Tumor volume inhibition rate TGI", "setting": "[8]; G3, 50 mg/kg, BID*22, at day 14", "value": 89.4, "unit": "%"}, {"measurement": "Tumor volume inhibition rate TGI", "setting": "[8]; G4, 150 mg/kg, BID*22, at day 14", "value": 97.3, "unit": "%"}, {"measurement": "Tumor volume inhibition rate TGI", "setting": "[8]; G5, 150 mg/kg, QD*22", "value": 91.4, "unit": "%"}]}]}
